According to publication PMC7037052, “Predicting the Blood-Brain Barrier Permeability of New Drug-Like Compounds via HPLC with Various Stationary Phases” (Molecules, 2020):

Legend:
Type in all cases: physicochemical
[1] = RP-HPLC retention on Purosphere RP-18e (ODS) column, buffer pH 7.4-acetonitrile; details: for log kw, ODS: extrapolated to buffer pH 7.4 as mobile phase, 25 °C; for s ODS: slope of Soczewiński-Wachtmeister equation, acetonitrile φ 0.3–0.6
Procedure: (§1) Retention parameters reported as the log k values were calculated by the expression:(1) logk=log(tR−t0)/t0 where tR and t0 are the retention times of the solute and a non-retained compound (citric acid), respectively. They were used to calculate the log kw values, i.e., logarithms of retention parameter in the buffer as the mobile phase. For this purpose the Soczewiński-Wachtmeister’s equation was used:log k = log kw − sφ(2) where φ is the volume fraction of organic modifier in the mobile phase; k and kw are retention parameters corresponding to mixed effluent and buffer as the mobile phase, respectively. The slope s is characteristic of a given solute and chromatographic system. Strong linear relationships between log k and φ values were found for all the compounds in the range of effluent composition examined (R^2 > 0.9). The log kw values determined for the ODS (log kw, ODS), IAM (log kw, IAM) and Cholester (log kw, Cholester) columns were intercorrelated and the following linear relationships with a very good statistical quality were obtained:log kw, ODS = 0.691(± 0.094) + 0.982(± 0.044) log kw, IAM(3) SD = 0.257; R^2 = 0.8880; N = 65 log kw, ODS = 0.911(± 0.062) + 0.765(± 0.025) log kw, Cholester(4) SD = 0.192; R^2 = 0.9371; N = 65 log kw, IAM = 0.356(± 0.073) + 0.721(± 0.029) log kw, Cholester(5) SD = 0.224; R^2 = 0.9068; N = 65
(§2) Shimadzu Vp (Shimadzu, Izabelin, Poland) liquid chromatographic system equipped with LC 10AT pump, SPD 10A UV-Vis detector, SCL 10A system controller, CTO-10 AS chromatographic oven and Rheodyne injector valve with a 20 µL loop was applied in HPLC measurements. Three stationary phases were employed: • Purosphere RP-18e (ODS), 125 × 4 mm i.d., 5 µm (Merck); • IAM.PC.DD2 100 × 4.6 mm i.d., 10 µm (Regis Chemicals Company, Morton Grove, IL, USA); • Cosmosil Cholester, 75 × 2 mm i.d., 2.5 µm (Genore, Warsaw, Poland).
(§3) As mobile phases buffer-acetonitrile mixtures were used. The buffer was prepared from 0.01 mol L^−1 solutions of Na2HPO4 and citric acid and the pH 7.4 value was fixed before mixing with organic modifier. With the ODS column acetonitrile concentration in the effluent, expressed as a volume fraction (φ, v/v), was changed in the range 0.3–0.6, with the constant step of 0.1. The flow rate was 1 mL min^−1. With the IAM column acetonitrile concentration was changed in the range 0.2–0.5, also with the constant step of 0.1 and the flow rate was 1.3 mL min^−1. With the Cosmosil Cholester column acetonitrile concentration was changed in the range 0.4–0.6, with the constant step of 0.05 and the flow rate was 0.4 mL min^−1. Samples of test compounds were dissolved in acetonitrile—c.a. 0.005 mg mL^−1. […] They were detected under UV light at 210 and 254 nm. All measurements were carried out at 25 °C. The dead time values were measured from non-retained compound (citric acid) peaks. All reported log kw values are the average of at least three independent measurements. The extrapolated retention coefficients (logs kw) achieved by HPLC on ODS, IAM and Cholester stationary phases were used for modelling the log BB permeation of 65 drug-like compounds employed as a whole test set (Table 1).

[2] = RP-HPLC retention on IAM.PC.DD2 (immobilized artificial membrane) column, buffer pH 7.4-acetonitrile; details: for log kw, IAM: extrapolated to buffer pH 7.4 as mobile phase, 25 °C; for s IAM: slope of Soczewiński-Wachtmeister equation, acetonitrile φ 0.2–0.5
Procedure: as §1, §2, §3

[3] = RP-HPLC retention on Cosmosil Cholester column, buffer pH 7.4-acetonitrile; details: for log kw, Cholester: extrapolated to buffer pH 7.4 as mobile phase, 25 °C; for s Cholester: slope of Soczewiński-Wachtmeister equation, acetonitrile φ 0.4–0.6
Procedure: as §1, §2, §3

log kw, ODS [1] | s ODS [1] | log kw, IAM [2] | s IAM [2] | log kw, Cholester [3] | s Cholester [3] | Compound
3.09 | 5.24 | 2.59 | 5.14 | 3.09 | 5.06 | Cc1ccc(N2CCn3c2nnc(Cc2cccc(C)c2)c3=O)cc1 [Compound 47]
2.93 | 5.02 | 2.51 | 5.17 | 3.21 | 5.15 | CCOc1ccc(N2CCn3c2nnc(Cc2ccccc2Cl)c3=O)cc1 [Compound 53]
1.30 | 3.02 | 0.81 | 2.45 | 0.57 | 1.82 | COC(=O)Cc1nnc2n(c1=O)CCN2c1ccc(OC)cc1 [Compound 9]
3.29 | 5.70 | 2.64 | 5.41 | 3.20 | 5.20 | O=c1c(-c2ccccc2)nnc2n1CCN2c1cccc(Cl)c1 [Compound 38]
2.36 | 4.44 | 1.82 | 4.39 | 1.82 | 3.55 | COC(=O)Cc1nnc2n(c1=O)CCN2c1ccc(Cl)cc1 [Compound 11]
3.48 | 5.90 | 3.26 | 6.40 | 3.86 | 6.02 | O=c1c(-c2ccccc2)nnc2n1CCN2c1ccc(Cl)c(Cl)c1 [Compound 40]
2.65 | 4.59 | 2.02 | 4.44 | 2.29 | 4.15 | O=c1c(-c2ccco2)nnc2n1CCN2c1ccc(Cl)cc1 [Compound 26]
3.59 | 5.85 | 2.48 | 5.18 | 2.90 | 4.80 | O=c1c(Cc2cccc(Cl)c2)nnc2n1CCN2c1ccccc1 [Compound 43]
4.02 | 6.45 | 3.17 | 6.18 | 3.68 | 5.82 | O=c1c(Cc2ccc(Cl)cc2)nnc2n1CCN2c1ccc(Cl)cc1 [Compound 60]
3.14 | 5.36 | 2.43 | 5.02 | 3.07 | 5.02 | CCOc1ccc(N2CCn3c2nnc(Cc2ccc(C)cc2)c3=O)cc1 [Compound 52]
4.29 | 6.66 | 3.40 | 6.55 | 4.12 | 6.20 | O=c1c(CCc2ccccc2)nnc2n1CCN2c1ccc(Cl)c(Cl)c1 [Compound 65]
3.60 | 5.62 | 2.39 | 4.81 | 3.01 | 4.70 | O=c1c(Cc2ccc(Cl)cc2)nnc2n1CCN2c1ccccc1 [Compound 44]

Further lines, the compound ahead of its results:

Compound | log kw, ODS [1] | s ODS [1] | log kw, IAM [2] | s IAM [2] | log kw, Cholester [3] | s Cholester [3]
COc1ccc(N2CCn3c2nnc(-c2ccccc2)c3=O)cc1 [Compound 34] | 2.59 | 4.62 | 1.71 | 3.91 | 2.27 | 3.80
CCOC(=O)Cc1nnc2n(c1=O)CCN2c1ccc(Cl)c(Cl)c1 [Compound 17] | 3.16 | 5.33 | 2.42 | 5.01 | 2.77 | 4.61
Cc1ccc(N2CCn3c2nnc(Cc2ccc(Cl)cc2)c3=O)cc1 [Compound 50] | 3.22 | 5.55 | 2.81 | 5.62 | 3.39 | 5.34
CCOC(=O)Cc1nnc2n(c1=O)CCN2c1ccc(OC)cc1 [Compound 14] | 1.37 | 3.15 | 0.91 | 2.58 | 0.65 | 1.92
CCOc1ccc(N2CCn3c2nnc(CC(=O)OC)c3=O)cc1 [Compound 10] | 1.95 | 3.91 | 1.42 | 3.39 | 1.36 | 2.81
O=c1c(CCc2ccccc2)nnc2n1CCN2c1ccccc1 [Compound 61] | 2.80 | 4.92 | 2.07 | 4.45 | 2.33 | 4.02
Cc1ccc(N2CCn3c2nnc(-c2ccco2)c3=O)cc1 [Compound 20] | 2.43 | 4.39 | 1.69 | 3.90 | 2.03 | 3.68
O=c1c(Cc2ccccc2)nnc2n1CCN2c1ccc(Cl)cc1 [Compound 57] | 3.11 | 5.05 | 2.52 | 5.06 | 2.98 | 4.85
O=c1c(-c2ccco2)nnc2n1CCN2c1ccc(Cl)c(Cl)c1 [Compound 27] | 3.46 | 5.68 | 3.23 | 6.30 | 2.92 | 4.85
CCOC(=O)Cc1nnc2n(c1=O)CCN2c1ccc(Cl)cc1 [Compound 16] | 2.80 | 4.88 | 2.11 | 4.51 | 2.37 | 4.19
Cc1ccc(N2CCn3c2nnc(Cc2cccc(Cl)c2)c3=O)cc1 [Compound 49] | 3.31 | 5.41 | 2.78 | 5.50 | 3.40 | 5.33
Cc1ccccc1N1CCn2c1nnc(Cc1ccccc1Cl)c2=O [Compound 56] | 3.01 | 4.95 | 2.02 | 4.31 | 2.34 | 4.05
COc1ccccc1N1CCn2c1nnc(-c1ccccc1)c2=O [Compound 33] | 1.98 | 3.99 | 1.47 | 3.62 | 1.69 | 2.94
O=c1c(-c2ccco2)nnc2n1CCN2c1ccccc1 [Compound 18] | 2.12 | 4.06 | 1.29 | 3.23 | 1.43 | 3.12
O=c1c(-c2ccco2)nnc2n1CCN2c1cccc(Cl)c1 [Compound 25] | 2.75 | 4.85 | 2.08 | 4.55 | 2.36 | 4.05
CCOc1ccc(N2CCn3c2nnc(Cc2cccc(Cl)c2)c3=O)cc1 [Compound 54] | 3.35 | 5.55 | 2.73 | 5.61 | 3.31 | 5.22
Cc1ccc(N2CCn3c2nnc(Cc2ccccc2)c3=O)cc1 [Compound 45] | 3.35 | 5.55 | 2.15 | 4.69 | 2.74 | 4.59
